Source: ChEMBL document CHEMBL3351322, “Study the interactions between human serum albumin and two antifungal drugs: fluconazole and its analogue DTP” (Bioorg Med Chem Lett, 2014)

Key:
Assay type in all cases: ADME; call rule not given here
Albumin [1] = target: T1, Albumin (Homo sapiens, UniProt P02768); test: Binding affinity to human serum albumin at 0.4 to 5.6 x 10' -5 M by UV-Vis spectroscopy; conditions: isolated protein
Albumin [2] = target: T1, Albumin; test: Ratio of binding constant for human serum albumin in presence of Mg2+ to binding constant for human serum albumin in absence of metal ions
Albumin [3] = target: T1, Albumin; test: Ratio of binding constant for human serum albumin in presence of Ba2+ to binding constant for human serum albumin in absence of metal ions
Albumin [4] = target: T1, Albumin; test: Ratio of binding constant for human serum albumin in presence of Zn2+ to binding constant for human serum albumin in absence of metal ions
Albumin [5] = target: T1, Albumin; test: Ratio of binding constant for human serum albumin in presence of Mn2+ to binding constant for human serum albumin in absence of metal ions
Albumin [6] = target: T1, Albumin; test: Ratio of binding constant for human serum albumin in presence of Cu2+ to binding constant for human serum albumin in absence of metal ions
Albumin [7] = target: T1, Albumin; test: Ratio of binding constant for human serum albumin in presence of Co2+ to binding constant for human serum albumin in absence of metal ions
Albumin [8] = target: T1, Albumin; test: Ratio of binding constant for human serum albumin in presence of Ni2+ to binding constant for human serum albumin in absence of metal ions
Albumin [9] = target: T1, Albumin; test: Ratio of binding constant for human serum albumin in presence of Fe3+ to binding constant for human serum albumin in absence of metal ions
Albumin [10] = target: T1, Albumin; test: Ratio of binding constant for human serum albumin in presence of Cr3+ to binding constant for human serum albumin in absence of metal ions
Albumin [11] = target: T1, Albumin; test: Ratio of binding constant for human serum albumin in presence of La3+ to binding constant for human serum albumin in absence of metal ions

T1 sequence (P02768 whole entry): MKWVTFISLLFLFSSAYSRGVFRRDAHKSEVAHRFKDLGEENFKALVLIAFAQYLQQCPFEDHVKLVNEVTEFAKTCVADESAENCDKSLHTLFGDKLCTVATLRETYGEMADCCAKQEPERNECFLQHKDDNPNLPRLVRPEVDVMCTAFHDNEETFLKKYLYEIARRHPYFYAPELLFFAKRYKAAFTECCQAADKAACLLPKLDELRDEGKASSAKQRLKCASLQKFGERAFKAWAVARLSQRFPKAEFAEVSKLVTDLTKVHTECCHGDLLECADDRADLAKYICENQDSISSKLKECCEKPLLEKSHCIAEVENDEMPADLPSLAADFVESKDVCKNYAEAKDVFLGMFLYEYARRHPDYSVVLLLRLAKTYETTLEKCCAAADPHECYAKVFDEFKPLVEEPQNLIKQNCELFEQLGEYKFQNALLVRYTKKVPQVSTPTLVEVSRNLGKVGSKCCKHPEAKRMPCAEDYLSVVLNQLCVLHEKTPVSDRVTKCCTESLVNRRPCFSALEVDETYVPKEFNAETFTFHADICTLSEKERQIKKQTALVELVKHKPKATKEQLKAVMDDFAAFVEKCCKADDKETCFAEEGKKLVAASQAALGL

| Structure (SMILES) | Activity (Albumin [1]) | Ratio (Albumin [2]) | Ratio (Albumin [3]) | Ratio (Albumin [4]) | Ratio (Albumin [5]) | Ratio (Albumin [6]) | Ratio (Albumin [7]) | Ratio (Albumin [8]) | Ratio (Albumin [9]) | Ratio (Albumin [10]) | Ratio (Albumin [11]) |
| --- | --- | --- | --- | --- | --- | --- | --- | --- | --- | --- | --- |
| OC(Cn1cncn1)(Cn1cncn1)c1ccc(Cl)cc1Cl | Active | – | – | – | – | – | – | – | – | – | – |
| OC(Cn1cncn1)(Cn1cncn1)c1ccc(F)cc1F [FLUCONAZOLE] | Active | 1.081 | 0.956 | 1.11 | 0.868 | 0.961 | 0.945 | 0.857 | 0.741 | 0.866 | 0.905 |
